From PubChem BioAssay AID330 (DTP/NCI, 2004) come the findings set out here.

This assay relates to P388 leukemia ip, CD2F1 mice, survival T/C. Kind of assay: NCI In Vivo Anticancer Drug Screen. Data for tumor model P388 Leukemia (intraperitoneal) in CD2F1 (CDF1) mice. The conditions noted are these: endpoint: median survival time, higher = longer survival. A digest of the protocol:
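Mice carrying the transplanted tumor received test compound or vehicle. Survival was recorded in each group, and the value is the treated-group measurement divided by that of the vehicle-treated control group.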

[1] abbreviates: dose: 25.0 mg/kg/injection, schedule: Q04DX002 (ip), vehicle: saline with Tween-80.
[2] abbreviates: dose: 50.0 mg/kg/injection, schedule: Q04DX002 (ip), vehicle: saline with Tween-80.
The mark [3] stands for this setting: dose: 100.0 mg/kg/injection, schedule: Q04DX002 (ip), vehicle: saline with Tween-80.
Setting [4] is: dose: 100.0 mg/kg/injection, schedule: Q01DX009 (ip), vehicle: Klucel (hydroxypropylcellulose) (HPC).
Setting [5] is: dose: 200.0 mg/kg/injection, schedule: Q01DX009 (ip), vehicle: Klucel (hydroxypropylcellulose) (HPC).
Setting [6] is: dose: 6.25 mg/kg/injection, schedule: Q01DX009 (ip), vehicle: Klucel (hydroxypropylcellulose) (HPC).
Where [7] appears, read: dose: 12.5 mg/kg/injection, schedule: Q01DX009 (ip), vehicle: Klucel (hydroxypropylcellulose) (HPC).
Setting [8] is: dose: 25.0 mg/kg/injection, schedule: Q01DX009 (ip), vehicle: Klucel (hydroxypropylcellulose) (HPC).
Where [9] appears, read: dose: 50.0 mg/kg/injection, schedule: Q01DX005 (ip), vehicle: saline with Tween-80.
[10] abbreviates: dose: 100.0 mg/kg/injection, schedule: Q01DX005 (ip), vehicle: saline with Tween-80.
The mark [11] stands for this setting: dose: 200.0 mg/kg/injection, schedule: Q01DX005 (ip), vehicle: saline with Tween-80.
Where [12] appears, read: dose: 50.0 mg/kg/injection, schedule: Q01DX005 (ip), vehicle: Klucel (hydroxypropylcellulose) (HPC).
Setting [13] is: dose: 100.0 mg/kg/injection, schedule: Q01DX005 (ip), vehicle: Klucel (hydroxypropylcellulose) (HPC).
Setting [14] is: dose: 200.0 mg/kg/injection, schedule: Q01DX005 (ip), vehicle: Klucel (hydroxypropylcellulose) (HPC).
Where [15] appears, read: dose: 50.0 mg/kg/injection, schedule: Q01DX009 (ip), vehicle: saline with Tween-80.
[16] abbreviates: dose: 60.0 mg/kg/injection, schedule: Q01DX005 (ip), vehicle: saline with Tween-80.
The mark [17] stands for this setting: dose: 25.0 mg/kg/injection, schedule: Q04DX003 (ip), vehicle: saline with Tween-80.
The mark [18] stands for this setting: dose: 100.0 mg/kg/injection, schedule: Q04DX003 (ip), vehicle: saline with Tween-80.
The mark [19] stands for this setting: dose: 120.0 mg/kg/injection, schedule: Q01DX005 (ip), vehicle: saline with Tween-80.
The mark [20] stands for this setting: dose: 240.0 mg/kg/injection, schedule: Q01DX005 (ip), vehicle: saline with Tween-80.

“And” between values parts separate entries of the source, which are not always exact repeats. Equal values may be shown once. Inconclusive results and toxic doses are left out.

For the compound `CCN(CC)CCCC(C)NC(=O)Cc1cc(O)c2c(c1O)C(=O)c1ccccc1C2=O` (stereo not given), the T/C by setting is: (dose: 2.5 mg/kg/injection, schedule: Q01DX009 (ip), vehicle: water) 108 % of control and 112 % of control; (dose: 5.0 mg/kg/injection, schedule: Q01DX009 (ip), vehicle: water) 102 % of control and 110 % of control; (dose: 10.0 mg/kg/injection, schedule: Q01DX009 (ip), vehicle: water) 99 % of control and 103 % of control and 97 % of control; (dose: 20.0 mg/kg/injection, schedule: Q01DX009 (ip), vehicle: water) 99 % of control and 110 % of control and 93 % of control; (dose: 40.0 mg/kg/injection, schedule: Q01DX009 (ip), vehicle: water) 102 % of control and 113 % of control; (dose: 80.0 mg/kg/injection, schedule: Q01DX009 (ip), vehicle: water) 108 % of control.

Take `O=c1[nH]c(=O)c2c(Br)[nH]nc2[nH]1`: the T/C is 110 % of control (dose: 100.0 mg/kg/injection, schedule: Q01DX001 (ip), vehicle: Klucel (hydroxypropylcellulose) (HPC)) and 103 % of control (dose: 200.0 mg/kg/injection, schedule: Q01DX001 (ip), vehicle: Klucel (hydroxypropylcellulose) (HPC)).

Consider `Cc1c(Br)c(C)[n+]([O-])n1O`, for which the T/C is 99 % of control (dose: 60.0 mg/kg/injection, schedule: Q01DX005 (ip), vehicle: Klucel (hydroxypropylcellulose) (HPC)) and 95 % of control (dose: 120.0 mg/kg/injection, schedule: Q01DX005 (ip), vehicle: Klucel (hydroxypropylcellulose) (HPC)).

Turning to `c1ccc2c(NCC3CCN(c4c5ccccc5nc5ccccc45)CC3)c3ccccc3nc2c1`, the T/C under setting [1] was 118 % of control, the T/C under setting [2] was 117 % of control and the T/C under setting [3] is 111 % of control.

In the case of `CC(C)(C)C(=O)Nc1ccc(C(C)(C)C)cc1C(O)(C(F)(F)F)C(F)(F)F`, the T/C was 92 % of control under setting [4] and 88 % of control under setting [5].

For `O=C1NC(c2cccc(OCc3ccccc3)c2)Nc2ccccc21` (stereo not given), the T/C reads like this: (dose: 3.13 mg/kg/injection, schedule: Q01DX009 (ip), vehicle: Klucel (hydroxypropylcellulose) (HPC)) 94 % of control; under setting [6], 107 % of control; under setting [7], 102 % of control; under setting [8], 100 % of control; (dose: 50.0 mg/kg/injection, schedule: Q01DX009 (ip), vehicle: Klucel (hydroxypropylcellulose) (HPC)) 109 % of control; under setting [4], 115 % of control. Moreover, under setting [5], the T/C is 102 % of control.

For the compound `CN1C(=NCCO)NS(=O)(=O)c2ccccc21`, the T/C under setting [9] was 98 % of control, the T/C under setting [10] is 100 % of control and the T/C under setting [11] was 104 % of control.

Consider `C=C(C)COC(=O)C1C2CC(C3OC23)C1C(=O)OCC(=C)C` (stereo not given), for which the T/C by setting is: under setting [12], 102 % of control; under setting [13], 104 % of control; under setting [14], 100 % of control.

In the case of `NCC12CC3CC(CC(C3)C1)C2`, the T/C was 103 % of control (dose: 12.5 mg/kg/injection, schedule: Q01DX009 (ip), vehicle: saline with Tween-80); 102 % of control (dose: 25.0 mg/kg/injection, schedule: Q01DX009 (ip), vehicle: saline with Tween-80); 100 % of control and 102 % of control under setting [15].

Consider `COC(=O)NC1(NC(=O)OC)NC(=O)c2ccccc2N1`, for which the T/C (dose: 25.0 mg/kg/injection, schedule: Q01DX005 (ip), vehicle: DMSO) is 98 % of control and the T/C (dose: 50.0 mg/kg/injection, schedule: Q01DX005 (ip), vehicle: DMSO) was 100 % of control.

On to `CCCCCCCCNC1c2ccccc2CCC1O` (stereo not given), for which the T/C is, setting by setting: (dose: 25.0 mg/kg/injection, schedule: Q01DX005 (ip), vehicle: Klucel (hydroxypropylcellulose) (HPC)) 97 % of control; under setting [12], 94 % of control; under setting [13], 97 % of control.

Take `[Br][Pd][Br].[NH-]C1CCCC2CCC[N-]C12` (stereo not given): the T/C runs as follows: (dose: 12.5 mg/kg/injection, schedule: Q04DX002 (ip), vehicle: saline with Tween-80) 93 % of control; under setting [1], 93 % of control; under setting [2], 98 % of control.

As for `ClCCCSSCCCCl`, the T/C is, setting by setting: (dose: 30.0 mg/kg/injection, schedule: Q01DX005 (ip), vehicle: saline with Tween-80) 107 % of control; under setting [16], 110 % of control.

Regarding `O=C(O)c1cc(Br)c2ccccc2c1O`, the T/C under setting [17] is 100 % of control; the T/C (dose: 50.0 mg/kg/injection, schedule: Q04DX003 (ip), vehicle: saline with Tween-80) was 100 % of control; the T/C under setting [18] was 100 % of control.

With `C=CC(=O)NCNC(=O)CCBr`, the T/C under setting [17] is 109 % of control; the T/C under setting [15] is 186 % of control; the T/C under setting [18] was 150 % of control; the T/C (dose: 200.0 mg/kg/injection, schedule: Q04DX003 (ip), vehicle: saline with Tween-80) was 159 % of control and 190 % of control; the T/C (dose: 300.0 mg/kg/injection, schedule: Q04DX003 (ip), vehicle: saline with Tween-80) was 172 % of control.

On to `O=C(CCC(=O)Nc1cccc([N+](=O)[O-])c1)CC(=O)c1ccc(Cl)cc1`, for which the T/C is 96 % of control under setting [16], 105 % of control under setting [19] and 96 % of control under setting [20].

Regarding `Nc1ncnc2c1c(-c1ccccc1)cn2-c1ccc(Cl)cc1`, the T/C was 104 % of control under setting [16], 99 % of control under setting [19] and 88 % of control under setting [20].

Take `COC1=C(C)C(=O)c2[nH]ccc2C1=O`: the T/C under setting [3] is 102 % of control.

Regarding `CCCCCCCSc1ncnc2c1ncn2C(=O)Sc1ccccc1`, the T/C under setting [9] is 104 % of control, the T/C under setting [10] was 99 % of control and the T/C under setting [11] was 107 % of control.

For the compound `Oc1ccc(/C=N/NC(=S)NN2CCOCC2)nc1`, the T/C reads like this: (dose: 3.12 mg/kg/injection, schedule: Q01DX009 (ip), vehicle: Klucel (hydroxypropylcellulose) (HPC)) 110 % of control; under setting [6], 109 % of control; under setting [7], 104 % of control; under setting [8], 111 % of control.

As for `CCO/C(C)=C(\C#N)C(Cl)=Nc1ccc(OC)cc1`, the T/C is 108 % of control under setting [3]; 101 % of control (dose: 200.0 mg/kg/injection, schedule: Q04DX002 (ip), vehicle: saline with Tween-80); 100 % of control (dose: 400.0 mg/kg/injection, schedule: Q04DX002 (ip), vehicle: saline with Tween-80).

As to `Oc1ccc2ccccc2c1/C=C/c1ccc2c(Br)cc(Br)c(O)c2n1`, the T/C reads like this: under setting [9], 99 % of control; under setting [10], 106 % of control; under setting [11], 88 % of control.

For the compound `O=C1CC(c2ccccc2)=NN1c1ccccc1`, the T/C under setting [12] was 101 % of control, the T/C under setting [13] was 99 % of control and the T/C under setting [14] was 95 % of control.

With `CCOP(=S)(N/N=C(/c1ccc(C)s1)C(F)(F)F)OCC`, the T/C by setting is: under setting [12], 104 % of control; under setting [13], 110 % of control; under setting [14], 114 % of control.
